# Measured values reported in patent publication EP0555116B1, “Compositions based on antiseptics and their applications” (HUTCHINSON, priority 1992, dated 1993).
# Test system: virus HIV1
# Test: Infectivity of HIV1 for normal human T lymphocytes after 10 min treatment of the virus; reverse transcriptase activity (ATI) in culture supernatants
# Format: cell-based
# Conditions: for action virucide: produit utilisé seul, 0,002
# Protocol: Pour l'étude du pouvoir infectieux résiduel après traitement des préparations virales, le milieu de culture des lymphocytes T humains normaux (milieu complet) correspond au milieu ci-dessus auquel sont ajoutés 10 % d'interleukine II, du polybrène (2 µg/ml) et du sérum anti-interféron humain 1/2500 (M.A. REY et al., Biochem. Biophys. Res. Com., 1984, 121, 126-133).
# L'infectivité est étudiée sur des lymphocytes T obtenus à partir du sang périphérique d'un donneur humain sain, et séparés sur un gradient de Ficoll.
# Les lymphocytes sont stimulés pendant 3 jours par de la phytohémagglutinine P (PHA-P), diluée au 1/500 et cultivés dans du milieu complet. Les cellules T blastiques sont infectées par le virus, traité ou non, pour mettre en évidence le pouvoir infectieux résiduel.
# Le virus est obtenu à partir d'un surnageant de culture de la lignée CEM infectée par HIV1. Cette lignée T lymphoblastoïde infectée par HIV1 est utilisée pour la production virale.
# Le titre des surnageants utilisés est évalué après dosage de l'activité transcriptase inverse (ATI) du virus.
# Dans les essais qui suivent, on a utilisé un surnageant dont l'ATI est de 1,8.10^6 cpm/ml. 2. Méthodes :
# • Préparation de la solution virale : plusieurs tubes contenant 1 ml de surnageant viral, ATI 1,8.10^6 cmp/ml sont concentrés par ultracentrifugation. Les culots de virus ainsi obtenus sont repris soit par chacune des dilutions de produit réalisées dans de l'eau bidistillée stérile, soit par de l'eau (virus témoin non traité). • Traitement des préparations virales : les préparations virales concentrées sont toutes traitées selon le protocole indiqué ci-dessous : • . échantillons viraux traités : les culots de virus concentrés par ultracentrifugation sont resuspendus dans 100 µl de chacune des concentrations en produits étudiés et incubés pendant 10 minutes. • . échantillon viral témoin : témoin virus non traité : le produit est remplacé par 100 µl d'eau bidistillée stérile. A la suite de ce temps d'incubation de 10 minutes, le virus présent dans chaque échantillon est rincé puis reconcentré par addition de 12 ml de milieu RPMI 1640 et ultracentrifugation. Les culots de virus sont alors repris dans 1 ml de milieu complet et utilisés pour l'infection de lymphocytes T humains normaux. • Mesure de l'infectivité des échantillons : 4.10^6 lymphocytes T humains normaux sont infectés avec chacune des préparations virales traitées ou témoins indiquées ci-dessus. L'infection des cellules T est réalisée selon une méthode précédemment décrite (F. BARRE-SINOUSSI et al., Science, 1983, 220, 868-871) : en résumé 4.10^6 cellules en suspension dans 1 ml de milieu complet sont incubées avec 1 ml de chacune des préparations virales traitées ou témoins pendant 1 heure à 37°C. Après 2 lavages par plusieurs ml de milieu de culture, les suspensions cellulaires sont ajustées à la concentration de 1.10^6 cellules par ml. Le jour de l'infection est considéré comme jour 0. • . Cellules témoin : 4.10^6 lymphocytes T sont cultivés et passés tous les 3 ou 4 jours dans les mêmes conditions que tous les autres échantillons. Ce témoin correspond au témoin négatif de la production virale au cours de la manipulation. La production virale au cours du temps est déterminée en mesurant l'activité transcriptase inverse présente dans les surnageants de culture selon le protocole décrit ci-dessous. • . Mesure de l'activité transcriptase inverse des préparations virales témoins et des échantillons viraux traités par les produits : ce dosage permet d'évaluer la présence de virus résiduel non inactivé dans l'échantillon de départ. Il est réalisé à partir de 1 ml de surnageant de culture, prélevé tous les 3 ou 4 jours et ultracentrifugé.
# Les activités enzymatiques sont mesurées dans 50 µl d'un mélange réactionnel contenant 50 mM Tris pH 7,8, 20 mM MgCl2, 20 mM KCl, 2 mM dithiotréitol, 0,25 OD/ml oligo dT, 0,25 OD/ml poly rA, 0,1 % Triton X 100 et 2,5 µCi 3H DTTP. […]
smiles,measurement,setting,value
"CCCCCCCCCC[N+](C)(C)CCCCCCCCCC [Bardac®, chlorure de didécyldiméthylammonium]",ATI dans les surnageants,"Bardac® 0,01 %, J3",334 cpm/ml
same,ATI dans les surnageants,"Bardac® 0,01 %, J6",222 cpm/ml
same,ATI dans les surnageants,"Bardac® 0,01 %, J10",1768 cpm/ml
same,ATI dans les surnageants,"Bardac® 0,01 %, J13",1592 cpm/ml
same,ATI dans les surnageants,"Bardac® 0,01 %, J17",190 cpm/ml
same,ATI dans les surnageants,"Bardac® 0,01 %, J20",390 cpm/ml
same,ATI dans les surnageants,"Bardac® 0,01 %, J23",1328 cpm/ml
same,ATI dans les surnageants,"Bardac® 0,01 %, J27",780 cpm/ml
same,ATI dans les surnageants,"Bardac® 0,01 %, J30",1000 cpm/ml
same,ATI dans les surnageants,"Bardac® 0,0004 %, J3",702 cpm/ml
same,ATI dans les surnageants,"Bardac® 0,0004 %, J6",18136 cpm/ml
same,ATI dans les surnageants,"Bardac® 0,0004 %, J10",117326 cpm/ml
same,ATI dans les surnageants,"Bardac® 0,0004 %, J13",74214 cpm/ml
same,ATI dans les surnageants,"Bardac® 0,0004 %, J17",50674 cpm/ml
same,ATI dans les surnageants,"Bardac® 0,0004 %, J20",22478 cpm/ml
same,ATI dans les surnageants,"Bardac® 0,0004 %, J23",13806 cpm/ml
same,ATI dans les surnageants,"Bardac® 0,0004 %, J27",7800 cpm/ml
same,ATI dans les surnageants,"Bardac® 0,0004 %, J30",4426 cpm/ml
same,ATI dans les surnageants,"Bardac® 0,002 %, J3",464 cpm/ml
same,ATI dans les surnageants,"Bardac® 0,002 %, J6",2472 cpm/ml
same,ATI dans les surnageants,"Bardac® 0,002 %, J10",16066 cpm/ml
same,ATI dans les surnageants,"Bardac® 0,002 %, J13",24902 cpm/ml
same,ATI dans les surnageants,"Bardac® 0,002 %, J17",77754 cpm/ml
same,ATI dans les surnageants,"Bardac® 0,002 %, J20",75554 cpm/ml
same,ATI dans les surnageants,"Bardac® 0,002 %, J23",101394 cpm/ml
same,ATI dans les surnageants,"Bardac® 0,002 %, J27",80560 cpm/ml
same,ATI dans les surnageants,"Bardac® 0,002 %, J30",64692 cpm/ml
same,ATI dans les surnageants,"Bardac® 0,004 %, J3",346 cpm/ml
same,ATI dans les surnageants,"Bardac® 0,004 %, J6",298 cpm/ml
same,ATI dans les surnageants,"Bardac® 0,004 %, J10",160 cpm/ml
same,ATI dans les surnageants,"Bardac® 0,004 %, J13",170 cpm/ml
same,ATI dans les surnageants,"Bardac® 0,004 %, J17",350 cpm/ml
same,ATI dans les surnageants,"Bardac® 0,004 %, J20",218 cpm/ml
same,ATI dans les surnageants,"Bardac® 0,004 %, J23",444 cpm/ml
same,ATI dans les surnageants,"Bardac® 0,004 %, J27",244 cpm/ml
same,ATI dans les surnageants,"Bardac® 0,004 %, J30",264 cpm/ml
same,ATI dans les surnageants,"Bardac® 0,006 %, J3",320 cpm/ml
same,ATI dans les surnageants,"Bardac® 0,006 %, J6",326 cpm/ml
same,ATI dans les surnageants,"Bardac® 0,006 %, J10",204 cpm/ml
same,ATI dans les surnageants,"Bardac® 0,006 %, J13",248 cpm/ml
same,ATI dans les surnageants,"Bardac® 0,006 %, J17",364 cpm/ml
same,ATI dans les surnageants,"Bardac® 0,006 %, J20",180 cpm/ml
same,ATI dans les surnageants,"Bardac® 0,006 %, J23",328 cpm/ml
same,ATI dans les surnageants,"Bardac® 0,006 %, J27",588 cpm/ml
same,ATI dans les surnageants,"Bardac® 0,006 %, J30",196 cpm/ml
same,action virucide,,ne sont pas virucides
"[H]/N=C(\N/C(=N/[H])NCCCCCCNC(=N)NC(=N)Nc1ccc(Cl)cc1)Nc1ccc(Cl)cc1 [Chlorhexidine, digluconate de chlorhexidine, reference compound]",ATI dans les surnageants,"Chlorhexidine 0,01 %, J3",262 cpm/ml
same,ATI dans les surnageants,"Chlorhexidine 0,01 %, J6",274 cpm/ml
same,ATI dans les surnageants,"Chlorhexidine 0,01 %, J10",200 cpm/ml
same,ATI dans les surnageants,"Chlorhexidine 0,01 %, J13",250 cpm/ml
same,ATI dans les surnageants,"Chlorhexidine 0,01 %, J17",230 cpm/ml
same,ATI dans les surnageants,"Chlorhexidine 0,01 %, J20",272 cpm/ml
same,ATI dans les surnageants,"Chlorhexidine 0,01 %, J23",456 cpm/ml
same,ATI dans les surnageants,"Chlorhexidine 0,01 %, J27",420 cpm/ml
same,ATI dans les surnageants,"Chlorhexidine 0,01 %, J30",276 cpm/ml
same,ATI dans les surnageants,"Chlorhexidine 0,002 %, J3",252 cpm/ml
same,ATI dans les surnageants,"Chlorhexidine 0,002 %, J6",352 cpm/ml
same,ATI dans les surnageants,"Chlorhexidine 0,002 %, J10",1304 cpm/ml
same,ATI dans les surnageants,"Chlorhexidine 0,002 %, J13",1752 cpm/ml
same,ATI dans les surnageants,"Chlorhexidine 0,002 %, J17",4288 cpm/ml
same,ATI dans les surnageants,"Chlorhexidine 0,002 %, J20",6138 cpm/ml
same,ATI dans les surnageants,"Chlorhexidine 0,002 %, J23",4614 cpm/ml
same,ATI dans les surnageants,"Chlorhexidine 0,002 %, J27",1616 cpm/ml
same,ATI dans les surnageants,"Chlorhexidine 0,002 %, J30",4528 cpm/ml
same,ATI dans les surnageants,"Chlorhexidine 0,005 %, J3",360 cpm/ml
same,ATI dans les surnageants,"Chlorhexidine 0,005 %, J6",374 cpm/ml
same,ATI dans les surnageants,"Chlorhexidine 0,005 %, J10",580 cpm/ml
same,ATI dans les surnageants,"Chlorhexidine 0,005 %, J13",742 cpm/ml
same,ATI dans les surnageants,"Chlorhexidine 0,005 %, J17",1902 cpm/ml
same,ATI dans les surnageants,"Chlorhexidine 0,005 %, J20",1126 cpm/ml
same,ATI dans les surnageants,"Chlorhexidine 0,005 %, J23",1226 cpm/ml
same,ATI dans les surnageants,"Chlorhexidine 0,005 %, J27",528 cpm/ml
same,ATI dans les surnageants,"Chlorhexidine 0,005 %, J30",720 cpm/ml
same,action virucide,,ne sont pas virucides
